Assay results reported in patent US8192962B2, “Processes for detecting toxic substances” (Daikin Industries, Ltd., priority 2001, dated 2012).

Tested on: Mitochondria-located protein genes
Experiment: DNA chip mRNA expression in yeast, mitochondria-located protein genes (Table 2)
Assay type: cell-based, Saccharomyces cerevisiae S288C
Settings: cells incubated two hours with the chemical substance
How it was run: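 First, S288C yeast grown in YPD at 25° C. are dosed in log phase with one toxicant (growth-inhibiting, not lethal) for 2 h. Next, total RNA is extracted and poly(A) mRNA isolated and reverse-transcribed with Cy3/Cy5-dUTP. Finally, whole-genome chip fluorescence is read relative to unexposed cells.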

SMILES: N#Cc1c(Cl)c(Cl)c(Cl)c(C#N)c1Cl [(9), 2,4,5,6-tetrachloro-1,3-benzenedicarbonitrile]
- The level of expressed mRNA in the presence of chemical substance/The level of expressed mRNA in the absence of chemical substance (yeast gene YJR121W): 0.8
- The level of expressed mRNA in the presence of chemical substance/The level of expressed mRNA in the absence of chemical substance (yeast gene YKL003C): 1.5
- The level of expressed mRNA in the presence of chemical substance/The level of expressed mRNA in the absence of chemical substance (yeast gene YKL016C): 1.3
- The level of expressed mRNA in the presence of chemical substance/The level of expressed mRNA in the absence of chemical substance (yeast gene YKL141W): 0.8
- The level of expressed mRNA in the presence of chemical substance/The level of expressed mRNA in the absence of chemical substance (yeast gene YKL142W): 5.8
- The level of expressed mRNA in the presence of chemical substance/The level of expressed mRNA in the absence of chemical substance (yeast gene YKL148C): 1.7
- The level of expressed mRNA in the presence of chemical substance/The level of expressed mRNA in the absence of chemical substance (yeast gene YKL170W): 0.9
- The level of expressed mRNA in the presence of chemical substance/The level of expressed mRNA in the absence of chemical substance (yeast gene YKL194C): 1.3
- The level of expressed mRNA in the presence of chemical substance/The level of expressed mRNA in the absence of chemical substance (yeast gene YKR066C): 0.7
- The level of expressed mRNA in the presence of chemical substance/The level of expressed mRNA in the absence of chemical substance (yeast gene YLL041C): 0.7
- The level of expressed mRNA in the presence of chemical substance/The level of expressed mRNA in the absence of chemical substance (yeast gene YLR038C): 0.4
- The level of expressed mRNA in the presence of chemical substance/The level of expressed mRNA in the absence of chemical substance (yeast gene YLR259C): 1.8
- The level of expressed mRNA in the presence of chemical substance/The level of expressed mRNA in the absence of chemical substance (yeast gene YLR295C): 1.4
- The level of expressed mRNA in the presence of chemical substance/The level of expressed mRNA in the absence of chemical substance (yeast gene YLR304C): 0.1
- The level of expressed mRNA in the presence of chemical substance/The level of expressed mRNA in the absence of chemical substance (yeast gene YLR348C): 2.1
- The level of expressed mRNA in the presence of chemical substance/The level of expressed mRNA in the absence of chemical substance (yeast gene YLR395C): 1.0
- The level of expressed mRNA in the presence of chemical substance/The level of expressed mRNA in the absence of chemical substance (yeast gene YML054C): 4.1
- The level of expressed mRNA in the presence of chemical substance/The level of expressed mRNA in the absence of chemical substance (yeast gene YML120C): 1.3
- The level of expressed mRNA in the presence of chemical substance/The level of expressed mRNA in the absence of chemical substance (yeast gene YML129C): 1.4
- The level of expressed mRNA in the presence of chemical substance/The level of expressed mRNA in the absence of chemical substance (yeast gene YMR023C): 1.5
- The level of expressed mRNA in the presence of chemical substance/The level of expressed mRNA in the absence of chemical substance (yeast gene YMR035W): 1.7
- The level of expressed mRNA in the presence of chemical substance/The level of expressed mRNA in the absence of chemical substance (yeast gene YMR083W): 0.4
- The level of expressed mRNA in the presence of chemical substance/The level of expressed mRNA in the absence of chemical substance (yeast gene YMR089C): 5.6
- The level of expressed mRNA in the presence of chemical substance/The level of expressed mRNA in the absence of chemical substance (yeast gene YMR152W): 2.7
- The level of expressed mRNA in the presence of chemical substance/The level of expressed mRNA in the absence of chemical substance (yeast gene YMR203W): 0.7
- The level of expressed mRNA in the presence of chemical substance/The level of expressed mRNA in the absence of chemical substance (yeast gene YMR267W): 0.4
- The level of expressed mRNA in the presence of chemical substance/The level of expressed mRNA in the absence of chemical substance (yeast gene YNL055C): 1.1
- The level of expressed mRNA in the presence of chemical substance/The level of expressed mRNA in the absence of chemical substance (yeast gene YNL071W): 1.1
- The level of expressed mRNA in the presence of chemical substance/The level of expressed mRNA in the absence of chemical substance (yeast gene YNL073W): 0.9
- The level of expressed mRNA in the presence of chemical substance/The level of expressed mRNA in the absence of chemical substance (yeast gene YNL104C): 1.1
- The level of expressed mRNA in the presence of chemical substance/The level of expressed mRNA in the absence of chemical substance (yeast gene YNL256W): 0.8
- The level of expressed mRNA in the presence of chemical substance/The level of expressed mRNA in the absence of chemical substance (yeast gene YOL096C): 1.3
- The level of expressed mRNA in the presence of chemical substance/The level of expressed mRNA in the absence of chemical substance (yeast gene YOR020C): 5.8
- The level of expressed mRNA in the presence of chemical substance/The level of expressed mRNA in the absence of chemical substance (yeast gene YOR037W): 1.3
- The level of expressed mRNA in the presence of chemical substance/The level of expressed mRNA in the absence of chemical substance (yeast gene YOR100C): 2.0
- The level of expressed mRNA in the presence of chemical substance/The level of expressed mRNA in the absence of chemical substance (yeast gene YOR130C): 2.0
- The level of expressed mRNA in the presence of chemical substance/The level of expressed mRNA in the absence of chemical substance (yeast gene YOR142W): 1.1
- The level of expressed mRNA in the presence of chemical substance/The level of expressed mRNA in the absence of chemical substance (yeast gene YOR150W): 0.8
- The level of expressed mRNA in the presence of chemical substance/The level of expressed mRNA in the absence of chemical substance (yeast gene YOR176W): 1.0
- The level of expressed mRNA in the presence of chemical substance/The level of expressed mRNA in the absence of chemical substance (yeast gene YOR187W): 0.6
- The level of expressed mRNA in the presence of chemical substance/The level of expressed mRNA in the absence of chemical substance (yeast gene YOR316C): 1.6
- The level of expressed mRNA in the presence of chemical substance/The level of expressed mRNA in the absence of chemical substance (yeast gene YPL040C): 0.2
- The level of expressed mRNA in the presence of chemical substance/The level of expressed mRNA in the absence of chemical substance (yeast gene YPL134C): 0.6
- The level of expressed mRNA in the presence of chemical substance/The level of expressed mRNA in the absence of chemical substance (yeast gene YPL135W): 0.5
- The level of expressed mRNA in the presence of chemical substance/The level of expressed mRNA in the absence of chemical substance (yeast gene YPL215W): 1.7
- The level of expressed mRNA in the presence of chemical substance/The level of expressed mRNA in the absence of chemical substance (yeast gene YPL262W): 1.4
- The level of expressed mRNA in the presence of chemical substance/The level of expressed mRNA in the absence of chemical substance (yeast gene YPR024W): 3.0
- The level of expressed mRNA in the presence of chemical substance/The level of expressed mRNA in the absence of chemical substance (yeast gene YPR037C): 1.5
- The level of expressed mRNA in the presence of chemical substance/The level of expressed mRNA in the absence of chemical substance (yeast gene YPR047W): 2.1
- The level of expressed mRNA in the presence of chemical substance/The level of expressed mRNA in the absence of chemical substance (yeast gene YPR134W): 1.8
